Measured values from patent US11071731B2, “Allosteric modulators of the mu opioid receptor” (Chiromics, LLC, priority 2017, dated 2021).

Assays:
mu opioid receptor (MOR) [1] = biological target: T1, mu opioid receptor (MOR) (Homo sapiens, UniProt P35372); test: Hit Hunter cAMP signaling assay (adenylyl cyclase inhibition), PAM mode with EC20 endomorphin-1; assay type: cell-based
mu opioid receptor (MOR) [2] = biological target: T1, mu opioid receptor (MOR); test: PathHunter β-arrestin recruitment assay, PAM mode with EC20 endomorphin-1; assay type: cell-based; conditions: for EC50: read-out: β-arr. EC50
Outline: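 Enzyme fragment complementation read-out: β-gal ED fragment fused to receptor, EA fused to β-arrestin, recruitment restoring β-gal activity detected by chemiluminescence. EC50 and percent maximal response derived for each compound.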

[3] = maximal response for adenylyl cyclase inhibition
[4] = maximal response for β-arrestin recruitment
[5] = adenylyl cyclase inhibition, read-out: cAMP EC50
[6] = cAMP EC50, adenylyl cyclase inhibition
[7] = maximal response, adenylyl cyclase inhibition
[8] = maximal response, β-arrestin recruitment

T1 sequence (P35372 whole entry): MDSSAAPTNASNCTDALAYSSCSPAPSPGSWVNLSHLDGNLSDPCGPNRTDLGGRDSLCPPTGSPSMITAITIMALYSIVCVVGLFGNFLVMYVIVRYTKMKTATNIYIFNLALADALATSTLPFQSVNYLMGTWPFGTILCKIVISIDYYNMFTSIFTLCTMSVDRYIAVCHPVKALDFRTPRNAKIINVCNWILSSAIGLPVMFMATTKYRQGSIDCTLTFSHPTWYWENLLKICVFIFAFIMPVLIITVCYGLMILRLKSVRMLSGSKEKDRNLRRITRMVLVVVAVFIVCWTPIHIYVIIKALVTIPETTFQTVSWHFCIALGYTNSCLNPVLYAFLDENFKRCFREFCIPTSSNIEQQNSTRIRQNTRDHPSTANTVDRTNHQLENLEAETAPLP

Structure (SMILES)	cAMP Max. Resp. (mu opioid receptor (MOR) [1]; [3])	β-arr Max. Resp. (mu opioid receptor (MOR) [2]; [4])	EC50 (mu opioid receptor (MOR) [2]; β-arrestin recruitment)	EC50 (mu opioid receptor (MOR) [1]; [5])	EC50 (mu opioid receptor (MOR) [1]; [6])	cAMP Max. Resp. (mu opioid receptor (MOR) [1]; [7])	β-arr Max. Resp. (mu opioid receptor (MOR) [2]; [8])
[2H]C1(c2cccc(C(F)(F)F)c2)C(F)CCCN1c1nc(Cl)ncc1F (single isomer, unassigned) [compound 209]	D (D represents a maximal response of < 40%)	F (F represents a maximal response of > 60%)	700 to 2100 nM				
O=S(=O)(c1ccc(Cl)cc1)N1CCCCC1c1ccc(Cl)c(C(F)(F)F)c1 (single isomer, unassigned) [compound 220]	D (D represents a maximal response of < 40%)	F (F represents a maximal response of > 60%)	> 2100 nM	700 to 2100 nM			
CC1CC(c2cccc(C(F)(F)F)n2)N(c2nc(Cl)ncc2F)C1 (single isomer, unassigned) [compound 221]	D (D represents a maximal response of < 40%)	D (D represents a maximal response of < 40%)	> 2100 nM	> 2100 nM			
Fc1ccc(C2CCCCN2c2nc(Cl)ncc2F)cc1Cl (single isomer, unassigned) [compound 343]	D (D represents a maximal response of < 40%)	D (D represents a maximal response of < 40%)	< 700 nM	< 700 nM			
Fc1cnc(Cl)nc1N1CCCCC1c1ccc(Cl)c(C(F)(F)F)c1 (single isomer, unassigned) [compound 345]	D (D represents a maximal response of < 40%)	D (D represents a maximal response of < 40%)	< 700 nM		< 700 nM		
Fc1ccc(C2CCCCN2c2nc(Cl)ncc2F)cc1Cl (single isomer, unassigned) [compound 346]	D (D represents a maximal response of < 40%)	D (D represents a maximal response of < 40%)	< 700 nM	< 700 nM			
Fc1cnc(Cl)nc1N1CCCCC1c1ccc(Cl)c(C(F)(F)F)c1 (single isomer, unassigned) [compound 348]	D (D represents a maximal response of < 40%)	D (D represents a maximal response of < 40%)	< 700 nM				
Fc1cc(Cl)cc(C2CCCCN2c2nc(Cl)ncc2F)c1 (single isomer, unassigned) [compound 404]	D (D represents a maximal response of < 40%)	D (D represents a maximal response of < 40%)	< 700 nM		< 700 nM		
Fc1cc(Cl)cc(C2CCCCN2c2nc(Cl)ncc2F)c1 (single isomer, unassigned) [compound 420]			< 700 nM			D (D represents a maximal response of < 40%)	D (D represents a maximal response of < 40%)
Fc1ccc(C2CCCCN2c2nc(Cl)ncc2F)cc1C(F)(F)F (single isomer, unassigned) [compound 422]			< 700 nM		< 700 nM	D (D represents a maximal response of < 40%)	D (D represents a maximal response of < 40%)
Fc1cc(C2CCCCN2c2nc(Cl)ncc2F)cc(C(F)(F)F)c1 (single isomer, unassigned) [compound 423]			< 700 nM		< 700 nM	D (D represents a maximal response of < 40%)	D (D represents a maximal response of < 40%)
O=S(=O)(c1ccc(Cl)cc1)N1CCCCC1c1ccc(F)c(Br)c1 (single isomer, unassigned) [compound 446]			> 2100 nM	> 2100 nM		E (E represents a maximal response of 40-60%)	F (F represents a maximal response of > 60%)
O=S(=O)(c1cccc(Cl)c1)N1CCCCC1c1cccc(C(F)(F)F)c1 (stereo not drawn) [Compound 21]	F (F represents a maximal response of > 60%)	F (F represents a maximal response of > 60%)	> 2100 nM	> 2100 nM			
O=S(=O)(Cc1ccc(Cl)cc1)N1CCCCC1c1cccc(C(F)(F)F)c1 (stereo not drawn) [Compound 22]	D (D represents a maximal response of < 40%)	F (F represents a maximal response of > 60%)	> 2100 nM	> 2100 nM			
O=S(=O)(Cc1ccc(Cl)c(Cl)c1)N1CCCCC1c1cccc(C(F)(F)F)c1 (stereo not drawn) [Compound 23]	D (D represents a maximal response of < 40%)	F (F represents a maximal response of > 60%)	> 2100 nM	> 2100 nM			
O=S(=O)(Cc1ccccc1Cl)N1CCCCC1c1cccc(C(F)(F)F)c1 (stereo not drawn) [Compound 24]	D (D represents a maximal response of < 40%)	F (F represents a maximal response of > 60%)	> 2100 nM	> 2100 nM			

Structure (SMILES)	cAMP Max. Resp. (mu opioid receptor (MOR) [1]; [3])	β-arr Max. Resp. (mu opioid receptor (MOR) [2]; [4])	EC50 (mu opioid receptor (MOR) [2]; β-arrestin recruitment)	EC50 (mu opioid receptor (MOR) [1]; [5])	EC50 (mu opioid receptor (MOR) [1]; [6])	cAMP Max. Resp. (mu opioid receptor (MOR) [1]; [7])	β-arr Max. Resp. (mu opioid receptor (MOR) [2]; [8])
O=S(=O)(c1ccc(Cl)cc1F)N1CCCCC1c1cccc(C(F)(F)F)c1 (stereo not drawn) [Compound 25]	D (D represents a maximal response of < 40%)	F (F represents a maximal response of > 60%)	> 2100 nM	> 2100 nM			
O=S(=O)(c1cc(F)ccc1F)N1CCCCC1c1cccc(C(F)(F)F)c1 (stereo not drawn) [Compound 26]	D (D represents a maximal response of < 40%)	F (F represents a maximal response of > 60%)	> 2100 nM	> 2100 nM			
Cc1cccc(S(=O)(=O)N2CCCCC2c2cccc(C(F)(F)F)c2)c1 (stereo not drawn) [Compound 27]	E (E represents a maximal response of 40-60%)	F (F represents a maximal response of > 60%)	> 2100 nM	> 2100 nM			
O=S(=O)(c1cccc(Cl)c1F)N1CCCCC1c1cccc(C(F)(F)F)c1 (stereo not drawn) [Compound 28]	D (D represents a maximal response of < 40%)	F (F represents a maximal response of > 60%)	700 to 2100 nM	700 to 2100 nM			
O=S(=O)(c1ccc(Cl)cc1)N1CCCC(F)C1c1ccc(F)c(Br)c1 (stereo not drawn) [Compound 29]			> 2100 nM	> 2100 nM			
[2H]C1(c2ccc(F)c(Br)c2)C(F)CCCN1S(=O)(=O)c1ccc(Cl)cc1 (stereo not drawn) [Compound 29]	E (E represents a maximal response of 40-60%)	F (F represents a maximal response of > 60%)					
O=S(=O)(c1cccc(Cl)c1)N1CCCC(F)C1c1ccc(F)c(Br)c1 (stereo not drawn) [Compound 32]			> 2100 nM	> 2100 nM			
[2H]C1(c2ccc(F)c(Br)c2)C(F)CCCN1S(=O)(=O)c1cccc(Cl)c1 (stereo not drawn) [Compound 32]	D (D represents a maximal response of < 40%)	F (F represents a maximal response of > 60%)					
O=S(=O)(Cc1ccc(Cl)cc1)N1CCCC(F)C1c1ccc(F)c(Br)c1 (stereo not drawn) [Compound 33]			> 2100 nM	> 2100 nM			
[2H]C1(c2ccc(F)c(Br)c2)C(F)CCCN1S(=O)(=O)Cc1ccc(Cl)cc1 (stereo not drawn) [Compound 33]	D (D represents a maximal response of < 40%)	F (F represents a maximal response of > 60%)					
O=S(=O)(c1ccc(Cl)cc1F)N1CCCC(F)C1c1ccc(F)c(Br)c1 (stereo not drawn) [Compound 37]			> 2100 nM	> 2100 nM			
[2H]C1(c2ccc(F)c(Br)c2)C(F)CCCN1S(=O)(=O)c1ccc(Cl)cc1F (stereo not drawn) [Compound 37]	D (D represents a maximal response of < 40%)	F (F represents a maximal response of > 60%)					
O=S(=O)(c1cc(F)ccc1F)N1CCCC(F)C1c1ccc(F)c(Br)c1 (stereo not drawn) [Compound 38]			> 2100 nM	> 2100 nM			
[2H]C1(c2ccc(F)c(Br)c2)C(F)CCCN1S(=O)(=O)c1cc(F)ccc1F (stereo not drawn) [Compound 38]	D (D represents a maximal response of < 40%)	F (F represents a maximal response of > 60%)					
CC1CCN(S(=O)(=O)c2ccc(Cl)cc2)C1c1ccc(F)c(Br)c1 (stereo not drawn) [Compound 106]	D (D represents a maximal response of < 40%)	F (F represents a maximal response of > 60%)	700 to 2100 nM	< 700 nM			
CC1CCN(S(=O)(=O)c2ccc(Cl)cc2)C1c1cccc(Cl)c1 (stereo not drawn) [Compound 107]	D (D represents a maximal response of < 40%)	F (F represents a maximal response of > 60%)	> 2100 nM	> 2100 nM			
